Experiments:
SNAP-25 [1] = assay: SNAP-25 aggregation kinetics by optical density; type: biochemical; details: SNAP-25 (CS mutant) 50 μM alone, 37 °C, shaking 300 rpm, OD 360 nm, 20 mM phosphate buffer pH 7.4, 100 μM MgCl2, 100 mM KCl
Experimental: To test our hypothesis that Hsc70 inhibits SNAP-25 aggregation, we monitored the aggregation kinetics of recombinantly expressed SNAP-25 in the absence and presence of Hsc70 by following optical density at 360 nm (Fig. 2). […] This lag time was elongated to ∼65 h in the presence of Hsc70. In neurons, Hsc70 works in collaboration with its co-chaperone CSPα. […] (Fig. S2A). Apg2 is a member of the Hsp110 family, which is known to suppress protein aggregation ([36]). […] (Fig. S2B).
Figure 2 Hsc70 delays the aggregation of SNAP-25. Aggregation kinetics of SNAP-25 (50 μM) at 37 °C. Optical density of SNAP-25 was recorded at 360 nm in the absence (black) and in the presence of Hsc70 (5 μM, red), and Hsc70+CSPαJ (5 μM each, blue).
Aggregation of SNAP-25 at 50 μM was followed by measuring the A360 in a 96-well plate using a BioTek plate reader (BioTek), at 37 °C with shaking at 300 rpm, in the absence and presence of Hsc70 and CSPαJ at 5 μM each, and Apg2 at 0.5 μM. The aggregation buffer included 20 mM phosphate buffer pH 7.4, 100 μM MgCl2, and 100 mM KCl, and an ATP-experiment was carried out using regeneration system (5 mM 2-phosphoenolpyruvate, 0.05 mg/ml pyruvate kinase, and 5 mM ATP), as described previously ([51]).
Figure SI 2. Apg2 enhances the effect of Hsc70 on SNAP-25. (A) Aggregation kinetics of SNAP-25 (50 μM) at 37 °C. OD600 of SNAP-25 was recorded in the absence (black) and in the presence of Hsc70, Hsc70+CSPa-J (blue) and Hsc70+CSPa-J+Apg2 (turquoise). […]
concentrations are SNAP-25 (50 μM), Hsc70 (5 μM), CSPa-J (5 μM) and Apg2 (0.5 μM).
(B) Aggregation kinetics of SNAP-25 (50 μM) at 37 °C. OD600 of SNAP-25 was recorded in the absence (black) and in the presence of Apg2 (blue). […]

Hsc70 = biological target: T1, Hsc70 (Homo sapiens, UniProt P11142); assay: Native PAGE / Western blot of SNAP-25-Hsc70 complex; type: binding; details: SNAP-25 10 μM, Hsc70 2 μM, anti-Hsc70 and anti-His Western blot
T1 construct: 6X His-tag (TEV-cleavable) (cleaved yes); made in house; host or cells: E. coli Rosetta (DE3)
Experimental: Figure 3 Hsc70 forms complexes with SNAP-25.A, native PAGE of SNAP-25 (10 μM) in the presence and absence of Hsc70 (2 μM). The difference in signal intensity of His-SNAP25 probed with antibody is likely due to altered epitope exposure upon formation of the SNAP-25-Hsc70 complex. B, binding of SNAP-25 (black), SNAP-25 SNN (SNNFR, orange), and SNC (SNCFR, green)) fragments to Hsc70 by competition followed by fluorescence anisotropy. Increasing concentrations of the competitors were added to a complex of Hsc70 (5 μM) and FITC-p5 peptide (50 nM). Error bars represent SDs from three independent experiments.
Precast native PAGE gels (Bio-Rad, 4–20%) were used to separate proteins based on their conformation and charge. SNAP-25 (10 μM), Hsc70 (2 μM) and a mix of both samples were mixed with a nondenaturing loading buffer and directly loaded onto the gel without heating. Electrophoresis was carried out in Tris-glycine running buffer at 180V for approximately 1 h until the dye front reached the bottom of the gel. Gels were stained with Coomassie Brilliant Blue R-250 (Sigma-Aldrich) and destained in a methanol-acetic acid solution until clear bands were visible.

[2] = system: SNARE complex with syntaxin and synaptobrevin; assay: SDS-resistant SNARE complex formation (SDS-PAGE); type: biochemical; details: without Hsc70, mixed with syntaxin and synaptobrevin, 1 M NaCl, 4 °C
Experimental: We took aliquots of SNAP-25 at different time points of the aggregation reaction (at 0 h, in lag phase and at 64 h in the log or saturation phase, Fig. 2A) and mixed them with the SNARE motifs of syntaxin and synaptobrevin to allow the formation of the SNARE complex.
Figure 6 Hsc70 facilitates incorporation of SNAP-25 into the SNARE complex in vitro. SDS-PAGE of SNAP-25 taken from the aggregation reactions (Fig. 2) at 0 h and 64 h after the initiation, without (left) and with Hsc70 (right), and mixed with syntaxin and synaptobrevin for the time indicated below each SDS-PAGE. SNAP-25 is expressed and purified from E. coli; a minor amount of the bacterial Hsp70 homolog DnaK (∼70 kDa) may copurify with SNAP-25, explaining the presence of higher molecular weight bands, with its proteolysis potentially occurring during ∼64-h SNAP-25 aggregation reactions. For synaptobrevin, we attribute the higher molecular weight bands to incomplete cleavage of GST-tagged synaptobrevin.
The SNARE motifs were mixed in an equimolar ratio in the following order: synaptobrevin-2 (29–93), syntaxin-1A (191–253), and SNAP-25 taken from the aggregation reaction, in the presence of 1 M NaCl. The assembly reaction was incubated at 4 °C overnight while rotating. The SNARE motifs were concentrated using a 30-kDa molecular weight cutoff Amicon centrifugation filters and run on 4 to 20% gradient SDS-PAGE.

SNAP-25 [3] = details: also Fig. S1; cited from earlier work
Text: SNAP-25 has four native cysteines that are palmitoylated upon interaction with the membrane. […] For all of our studies, the SNAP-25 CS mutant was used unless otherwise mentioned. We assessed formation of the Hsc70-SNAP-25 complex by CD and found no significant conformational ...

T1 sequence (P11142 whole entry): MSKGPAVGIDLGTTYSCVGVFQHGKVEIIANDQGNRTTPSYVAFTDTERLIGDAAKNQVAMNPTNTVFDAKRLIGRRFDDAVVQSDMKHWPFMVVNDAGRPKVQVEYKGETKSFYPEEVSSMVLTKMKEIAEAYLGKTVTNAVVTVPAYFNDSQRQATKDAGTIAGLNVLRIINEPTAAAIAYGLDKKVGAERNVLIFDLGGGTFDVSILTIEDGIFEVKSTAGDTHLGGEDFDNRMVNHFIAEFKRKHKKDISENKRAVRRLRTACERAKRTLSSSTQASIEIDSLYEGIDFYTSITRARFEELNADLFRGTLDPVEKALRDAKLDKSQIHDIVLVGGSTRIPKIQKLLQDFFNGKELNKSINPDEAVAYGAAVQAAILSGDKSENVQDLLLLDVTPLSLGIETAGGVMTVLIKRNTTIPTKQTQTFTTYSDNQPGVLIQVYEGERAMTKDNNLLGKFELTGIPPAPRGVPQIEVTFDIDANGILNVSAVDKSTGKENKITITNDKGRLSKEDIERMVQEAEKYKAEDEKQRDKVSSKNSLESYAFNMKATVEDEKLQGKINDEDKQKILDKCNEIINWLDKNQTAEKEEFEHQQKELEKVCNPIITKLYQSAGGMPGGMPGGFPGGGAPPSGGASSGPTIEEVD

## synaptosomal-associated 25 kDa protein [SNAP-25]
SNAP-25 [1]
  lag phase of SNAP-25 aggregation: ~38 h
Hsc70
  complex formation of His-SNAP-25 with Hsc70: a complex can be seen
[2]
  SNARE complex formation by SNAP-25 taken at 0 h of aggregation: forms SDS-resistant SNARE complexes
  SNARE complex formation by SNAP-25 taken at 64 h of aggregation: unable to form the SNARE complexes
SNAP-25 [3]
  secondary structure by CD: disordered with nascent helical tendencies
